Data taken from patent US11285135B2 (AMGEN INC., priority 2016, dated 2022).
Where two headings read alike, the source gives them in different places.

Legend:
[1] = system: Phosphorylation of ERK½ in A549 cells; test: Phospho-ERK½ MSD Assay in A549 cells; assay type: cell-based; conditions: 4 hours compound treatment, 10 ng/mL EGF for 10 min, read-out: p-ERK IC50 (A549)
Experimental: (§1) Phospho-ERK½ MSD Assay: MIA PaCa-2 (ATCC® CRL-1420™) and A549 (ATCC® CCL-185™) cells were cultured in RPMI 1640 Medium (ThermoFisher Scientific 11875093) containing 10% fetal bovine serum (ThermoFisher Scientific 16000044) and 1× penicillin-streptomycin-glutamine (ThermoFisher Scientific 10378016). Sixteen hours prior to compound treatment, MIA PaCa-2 or A549 cells were seeded in 96-well cell culture plates at a density of 25,000 cells/well and incubated at 37° C., 5% CO2. A compound dose-response titration was diluted in growth media, added to appropriate wells of a cell culture plate, and then incubated at 37° C., 5% CO2 for 4 hours. Following compound treatment, cells were stimulated with 10 ng/mL EGF (Roche 11376454001) for 10 min, washed with ice-cold Dulbecco's phosphate-buffered saline, no Ca^2+ or Mg^2+ (ThermoFisher Scientific 14190144), and then lysed in RIPA buffer (50 mM Tris-HCl pH 7.5, 1% Igepal, 0.5% sodium deoxycholate, 150 mM NaCl, and 0.5% sodium dodecyl sulfate) containing protease inhibitors (Roche 4693132001) and phosphatase inhibitors (Roche 4906837001). Cell lysates were stored frozen at −80° C. overnight. Phosphorylation of ERK½ in compound-treated lysates was assayed using Phospho-ERK½ Whole Cell Lysate kits (Meso Scale Discovery K151DWD) according to the manufacturer's protocol. Assay plates were read on a Meso Scale Discovery Sector Imager 6000, and data were analyzed using a 4-parameter logistic model to calculate IC50 values.

[2] = target: GDP-bound protein (aa 1-169), containing both G12C and C118A amino acid substitutions (Homo sapiens, UniProt P01116, C118A/G12C); test: Coupled Nucleotide Exchange Assay (SOS-mediated nucleotide exchange, AlphaScreen); assay type: biochemical; conditions: 2 hours compound pre-incubation
GDP-bound protein (aa 1-169), containing both G12C and C118A amino acid substitutions, sequence (P01116 1-169 isoform P01116-2 G12C/C118A): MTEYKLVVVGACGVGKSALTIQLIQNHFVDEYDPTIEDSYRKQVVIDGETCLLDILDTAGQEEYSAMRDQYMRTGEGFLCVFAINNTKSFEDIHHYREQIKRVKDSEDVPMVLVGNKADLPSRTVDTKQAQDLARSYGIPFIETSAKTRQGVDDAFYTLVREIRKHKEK
Experimental: Coupled Nucleotide Exchange Assay: Purified GDP-bound […] protein (aa 1-169), containing both G12C and C118A amino acid substitutions and an N-terminal His-tag, was pre-incubated with a compound dose-response titration for 2 hours in assay buffer (25 mM HEPES pH 7.4, 10 mM MgCl2, and 0.01% Triton X-100). Following compound pre-incubation, purified SOS protein (aa 564-1049) and GTP (Roche 10106399001) were added to the assay wells and incubated for an additional hour. […] The assay plates were then read on a PerkinElmer EnVision Multilabel Reader, using AlphaScreen® technology, and data were analyzed using a 4-parameter logistic model to calculate IC50 values.

[3] = system: Phosphorylation of ERK½ in MIA PaCa-2 cells; test: Phospho-ERK½ MSD Assay in MIA PaCa-2 cells; assay type: cell-based; conditions: 4 hours compound treatment, 10 ng/mL EGF for 10 min, read-out: p-ERK IC50 (MIA PaCa-2)
Experimental: as §1

[4] = Homo sapiens, MIA PaCa-2, MIA PaCa-2 cells

## C=CC(=O)N1CCN(c2snc3c(F)c(-c4cc(O)cc5ccccc45)c(Cl)cc23)[C@H](CC)C1 (racemic) [Example 1-8]
[1]; Homo sapiens, A549, A549 cells
  IC50: > 100 µM
[2]
  Coupled exchange IC50: 0.894 µM
[3]; [4]
  IC50: 6.07 µM

## C=CC(=O)N1CCN(c2snc3c(F)c(-c4cc(O)cc5ccccc45)c(Cl)cc23)C[C@@H]1CO (racemic) [Example 1-16, 1-(4-(5-chloro-7-fluoro-6-(3-hydroxy-1-naphthalenyl)-2,1-benzothiazol-3-yl)-2-(hydroxmethyl)-1-piperazinyl)-2-propen-1-one]
[1]; Homo sapiens, A549, A549 cells
  IC50: > 100 µM
[2]
  Coupled exchange IC50: 0.492 µM
[3]; [4]
  IC50: 4.83 µM

## C=CC(=O)N1CCN(c2snc3c(F)c(-c4cc(O)cc5ccccc45)c(Cl)cc23)C(CO)C1 (racemic) [Example 1-18, 1-(4-(5-chloro-7-fluoro-6-(3-hydroxy-1-naphthalenyl)-2,1-benzothiazol-3-yl)-3-(hydroxymethyl)-1-piperazinyl)-2-propen-1-one]
[1]; Homo sapiens, A549, A549 cells
  IC50: > 33.3 µM
[2]
  Coupled exchange IC50: 0.370 µM
[3]; [4]
  IC50: 0.559 µM

## C=CC(=O)N1CCN(c2snc3nc(-c4c(O)cccc4F)c(Cl)cc23)[C@@H](C)C1 (racemic) [Example 2-3, 1-(4-(5-chloro-6-(2-fluoro-6-hydroxyphenyl)[1,2]thiazo[3,4-b]pyridin-3-yl)-3-methyl-1-piperazinyl)-2-propen-1-one]
[1]; Homo sapiens, A549, A549 cells
  IC50: > 100 µM
[2]
  Coupled exchange IC50: 4.05 µM
[3]; [4]
  IC50: 6.53 µM

## C=CC(=O)N1CCN(c2nc(=O)n(-c3ccncc3C3CC3)c3cc(-c4c(O)cccc4F)c(Cl)cc23)[C@@H](C)C1 (single isomer, unassigned) [Example 9-7-1]
[1]; A549 cells
  IC50: 14.9 µM
[3]; MIA PaCa-2 cells
  IC50: 0.023 µM

## C=CC(=O)N1CCN(c2nc(=O)n(-c3ccncc3C3CC3)c3cc(-c4c(O)cccc4F)c(Cl)cc23)[C@@H](C)C1 (single isomer, unassigned) [Example 9-7-2]
[1]; A549 cells
  IC50: 62 µM
[3]; MIA PaCa-2 cells
  IC50: 0.237 µM

## C=CC(=O)N1CCN(c2snc3cc(-c4cc(O)cc5ccccc45)c(Cl)cc23)CC1 [Example 1-3]
[1]; Homo sapiens, A549, A549 cells
  IC50: > 100 µM
[3]; [4]
  IC50: 3.84 µM

## C=CC(=O)N1CCN(c2snc3c(F)c(-c4cc(O)ccc4F)c(Cl)cc23)CC1 [Example 1-28, 1-(4-(5-chloro-7-fluoro-6-(2-fluoro-5-hydroxyphenyl)benzo[c]isothiazol-3-yl)piperazin-1-yl)prop-2-en-1-one]
[1]; Homo sapiens, A549, A549 cells
  IC50: > 100 µM
[2]
  Coupled exchange IC50: 2.20 µM

## C=CC(=O)N1CCN(c2snc3c(F)c(-c4ncccc4Cl)c(Cl)cc23)CC1 [Example 6-2, 1-(4-(5-chloro-6-(3-chloro-2-pyridinyl)-7-fluoro-2,1-benzothiazol-3-yl)-1-piperazinyl)-2-propen-1-one]
[2]
  Coupled exchange IC50: 5.31 µM

## C=CC(=O)N1CCN(c2nc(=O)n(-c3ccccc3C(C)C)c3nc(-c4c(O)cccc4F)c(Cl)cc23)CC1 [Example 8-2, 6-chloro-7-(2-fluoro-6-hydroxyphenyl)-1-(2-(2-propanyl)phenyl)-4-(4-(2-propenoyl)-1-piperazinyl)pyrido[2,3-d]pyrimidin-2(1H)-one]
[1]; Homo sapiens, A549, A549 cells
  IC50: > 100 µM
[3]; [4]
  IC50: 0.05 µM

## C=CC(=O)N1CCN(c2nnc(-c3ccccc3C)c3cc(-c4c(O)cccc4F)c(Cl)cc23)CC1 [Example 10-1, 1-(4-(7-Chloro-6-(2-fluoro-6-hydroxyphenyl)-4-(2-methylphenyl)-1-phthalazinyl)-1-piperazinyl)-2-propen-1-one]
[2]
  Coupled exchange IC50: 24.5 µM

## C=CC(=O)N1CCN(c2nnc(Cl)c3cc(-c4c(O)cccc4F)c(Cl)cc23)CC1 [Example 10-13, 1-(4-(4,7-dichloro-6-(2-fluoro-6-hydroxyphenyl)-1-phthalazinyl)-1-piperazinyl)-2-propen-1-one]
[2]
  Coupled exchange IC50: 15.1 µM

## C=CC(=O)N1CCN(c2nnc(C3CCCC3)c3cc(-c4c(O)cccc4F)c(Cl)cc23)CC1 [Example 14, 1-(4-(7-Chloro-4-cyclopentyl-6-(2-fluoro-6-hydroxyphenyl)-1-phthalazinyl)-1-piperazinyl)-2-propen-1-one]
[2]
  Coupled exchange IC50: 2.69 µM

## C=CC(=O)N1CCN(c2nnc(N3CCCCC3)c3cc(-c4c(O)cccc4F)c(Cl)cc23)CC1 [Example 15, 1-(4-(7-Chloro-6-(2-fluoro-6-hydroxyphenyl)-4-(1-piperidinyl)-1-phthalazinyl)-1-piperazinyl)-2-propen-1-one]
[2]
  Coupled exchange IC50: 2.56 µM

## COc1cc(-c2c(Cl)cc3c(N4CCN(C(=O)/C=C/CN(C)C)CC4)snc3c2F)c2ccccc2c1 [Example 17-1, (2E)-1-(4-(5-Chloro-7-fluoro-6-(3-methoxy-1-naphthalenyl)-2,1-benzothiazol-3-yl)-1-piperazinyl)-4-(dimethylamino)-2-buten-1-one]
[2]
  Coupled exchange IC50: 20.6 µM

## C=C(CO)C(=O)N1CCN(c2snc3c(F)c(-c4cc(OC)cc5ccccc45)c(Cl)cc23)CC1 [Example 18-1, 1-(4-(5-chloro-7-fluoro-6-(3-methoxy-1-naphthalenyl)-2,1-benzothiazol-3-yl)-1-piperazinyl)-2-(hydroxymethyl)-2-propen-1-one]
[2]
  Coupled exchange IC50: 23.0 µM

## C=C(CO)C(=O)N1CCN(c2snc3c(F)c(-c4cc(O)cc5ccccc45)c(Cl)cc23)CC1 [Example 18-3, 1-(4-(5-chloro-7-fluoro-6-(3-hydroxy-1-naphthalenyl)-2,1-benzothiazol-3-yl)-1-piperazinyl)-2-(hydroxymethyl)-2-propen-1-one]
[2]
  Coupled exchange IC50: 24.6 µM

## C=CC(=O)N1CCN(c2snc3c(F)c(-c4cc(OC)cc5cnn(C)c45)c(Cl)cc23)CC1 [Example 19-1, 1-(4-(5-chloro-7-fluoro-6-(5-methoxy-1-methyl-1H-indazol-7-yl)-2,1-benzothiazol-3-yl)-1-piperazinyl)-2-propen-1-one]
[2]
  Coupled exchange IC50: 15.2 µM

## C=CC(=O)N1CCN(c2snc3c(F)c(-c4cc(O)cc5cn(C)nc45)c(Cl)cc23)CC1 [Example 19-3, 1-(4-(5-chloro-7-fluoro-6-(5-hydroxy-2-methyl-2H-indazol-7-yl)-2,1-benzothiazol-3-yl)-1-piperazinyl)-2-propen-1-one]
[2]
  Coupled exchange IC50: 115 µM

## C=C(CCO)C(=O)N1CCN(c2snc3c(F)c(-c4cc(O)cc5ccccc45)c(Cl)cc23)CC1 [Example 20, 1-(4-(5-chloro-7-fluoro-6-(3-hydroxy-1-naphthalenyl)-2,1-benzothiazol-3-yl)-1-piperazinyl)-4-hydroxy-2-methylidene-1-butanone]
[2]
  Coupled exchange IC50: 78.8 µM

## C=CC(=O)N1CCN(c2snc3c(F)c(-c4cc(O)cc5ncccc45)c(Cl)cc23)CC1 [Example 21, 1-(4-(5-chloro-7-fluoro-6-(7-hydroxy-5-quinolinyl)-2,1-benzothiazol-3-yl)-1-piperazinyl)-2-propen-1-one]
[2]
  Coupled exchange IC50: 9.41 µM

## C=CC(=O)N1CCN(c2snc3c(F)c(-c4nc(NC)cc5ccccc45)c(Cl)cc23)CC1 [Example 24, 1-(4-(5-Chloro-7-fluoro-6-(3-(methylamino)-1-isoquinolinyl)-2,1-benzothiazol-3-yl)-1-piperazinyl)-2-propen-1-one]
[2]
  Coupled exchange IC50: 6.20 µM

## C=CC(=O)N1CCN(c2nnc(-c3ccccc3)c3cc(Cl)c(-c4c(O)cccc4F)cc23)CC1 [Example 31, 2-(4-(4-acryloyl-1-piperazinyl)-7-chloro-1-phenyl-6-phthalazinyl)-3-fluorophenol]
[2]
  Coupled exchange IC50: 123 µM

## C=CC(=O)N1CCN(c2nnc(Cc3ccccc3)c3cc(Cl)c(Cl)cc23)CC1 [Example 34, 1-(4-Acryloyl-1-piperazinyl)-4-benzyl-6,7-dichlorophthalazine]
[2]
  Coupled exchange IC50: 34.2 µM

## C=CC(=O)N1CCN(c2nnc(Cc3ccccc3)c3cc(Cl)c(-c4c(O)cccc4F)cc23)CC1 [Example 36, 2-(4-(4-acryloyl-1-piperazinyl)-1-benzyl-7-chloro-6-phthalazinyl)-3-fluorophenol]
[2]
  Coupled exchange IC50: 39.8 µM
